Columns and labels:
[1] = Metabolic stability screen, mouse liver microsomes; assay type: in vitro ADME; conditions: 10 μM substrate, 30 min incubation, 37° C., 1 mM NADPH
Experimental: (§1) Metabolic stability screen: each substrate (10 μM) was incubated with microsomal protein (0.1-0.5 mg/ml) in 50 mM potassium phosphate buffer (pH 7.4) in 48-Well plate. The enzyme reaction was initiated by the addition of 1 mM NADPH, then incubated at 37° C. in a Form a Scientific incubator (Marietta, Ohio, USA) with gentle shaking. The reactions were quenched by the addition of 800 μl of ACN/MeOH (1:1, v/v), containing 0.5 μM of internal standard (IS), after 30 min incubation. Samples were then filtered by using Captiva 96-Well Filtration (Varian, Lake Forest, Calif., USA) and analyzed by LC/MS (mass spectrometry). Liver microsomal incubations were conducted in duplicate.
(§2) The parent remaining in the incubation mixture was determined by LC/MS. The LC/MS system consisted of an Agilent 1100 series (Agilent Technologies, Waldbronn, Germany) and API 2000 (MDS SCIEX, Ontario, Canada). A Luna C8(2) (50×2.0 mm, particle size 3 μm, Phenomenex, Torrance, Calif., USA) was used to quantify each compound at ambient temperature. The mobile phase consisted of (A): 10 mM NH4AC (pH 3.3) and (B): 100% ACN and was delivered at a flow rate of 0.2 ml/min. Elution was achieved using a linear gradient of 0-100% B over 3 min, then held 100% B for 4 min and returned to 100% A in 1 min. The column was equilibrated for 7 min before the next injection.
(§3) The peak area ratios (each substrate over IS) at each incubation time were expressed as the percentage of the ratios (each substrate over IS) of the control samples (0 min incubation). The parent remaining in the incubation mixture was expressed as the percentage of the values at 0 min incubation. The percentage turnover is calculated using the following equation (% turnover=100% turnover−% parent remaining) and is recorded as the percentage turnover in the Table 2.

[2] = molecular target: T1, truncated human 11β-HSD-1 enzyme (24-287AA) (Homo sapiens, UniProt P28845); experiment: 11β-HSD-1 enzymatic Scintillation Proximity Assay (SPA); assay type: biochemical
T1 construct: truncated human 11β-HSD-1 enzyme (24-287AA); made in house; host or cells: E. coli (crude lysate)
T1 sequence (P28845 24-287): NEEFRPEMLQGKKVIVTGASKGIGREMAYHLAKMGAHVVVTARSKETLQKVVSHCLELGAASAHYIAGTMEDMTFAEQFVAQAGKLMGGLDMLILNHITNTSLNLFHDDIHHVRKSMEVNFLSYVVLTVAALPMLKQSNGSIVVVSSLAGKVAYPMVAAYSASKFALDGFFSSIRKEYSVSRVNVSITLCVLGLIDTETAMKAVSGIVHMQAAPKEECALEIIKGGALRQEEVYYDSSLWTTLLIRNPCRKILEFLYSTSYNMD
Experimental: (§4) The reaction was stopped by adding a non-specific 11β-HSD inhibitor, 18β-glycyrrhetinic acid. The tritiated cortisol was captured by a mixture of an anti-cortisol monoclonal antibody and SPA beads coated with anti-mouse antibodies. The reaction plate was shaken at room temperature and the radioactivity bound to SPA beads was then measured on a β-scintillation counter. The 11-βHSD-1 assay was carried out in 96-well microtiter plates in a total volume of 220 μl. […] In order to drive the reaction in the forward direction, 1 mM G-6-P was also added. Solid compound was dissolved in DMSO to make a 10 mM stock followed by a subsequent 10-fold dilution with 3% DMSO in Tris/EDTA buffer (pH 7.4). […] Reactions were initiated by the addition of 10 μl of 0.1 mg/ml E. coli lysates overexpressing 11β-HSD-1 enzyme. After shaking and incubating plates for 30 minutes at room temperature, reactions were stopped by adding 10 μl of 1 mM glycyrrhetinic acid. The product, tritiated cortisol, was captured by adding 10 μl of […] monoclonal anti-cortisol antibodies and 100 μl SPA beads coated with anti-mouse antibodies. After shaking for 30 minutes, plates were read on a liquid scintillation counter Topcount. Percent inhibition was calculated based on the background and the maximal signal. Wells that contained substrate without compound or enzyme were used as the background, while the wells that contained substrate and enzyme without any compound were considered as maximal signal. Percent of inhibition of each compound was calculated relative to the maximal signal and IC50 curves were generated. This assay was applied to 11β-HSD-2 as well, whereby tritiated cortisol and NAD^+ were used as substrate and cofactor, respectively.

[3] = Metabolic stability screen, human liver microsomes; assay type: in vitro ADME; conditions: 10 μM substrate, 30 min incubation, 37° C., 1 mM NADPH
Experimental: as §1, §2, §3

[4] = system: CD-1 mice; experiment: 24-hour inhibitory avoidance in mice after subchronic (3 administration) dosing; assay type: in vivo; conditions: 30 mg/kg PO, BID the day before and one hour before training, vs vehicle control mice
Experimental: Male CD-1 mice were obtained from Charles River, Wilmington, Mass. Mice were group-housed 10 per cage. The body weight upon arrival was 20-25 g. Food and water were available ad libitum except during experiments. Animals were acclimated to the animal facilities for a period of at least one week prior to commencement of experiments. Animals were tested in the light phase of a 12-hour light: 12-hour dark schedule (lights on 0600 hours).
Compound KK and Compound LL were synthesized at Abbott Laboratories. […] Compound KK was administered in a cloudy, fine suspension, while Compound LL was administered in a solution.
On training day, mice were injected with Compound KK, Compound LL or vehicle one-hour PO before training. One hour following injection (start of training) mice were subjected to a training session in which they were placed in a lighted compartment of a two-compartment chamber (Gemini apparatus, San Diego Instruments, San Diego, Calif.) with a manually operated gate separating the compartments. […] Twenty-four hours later mice were again tested in the same apparatus, except without shock, and the transfer latency from the lighted to the dark compartment recorded and used as an index of memory for the punished response 24 hours earlier. […] Data were analyzed using Mann Whitney U comparisons. […]

[5] = molecular target: T2, human 11-β-HSD-2 (Homo sapiens, UniProt P80365); experiment: 11β-HSD-2 Scintillation Proximity Assay (tritiated cortisol, NAD+); assay type: biochemical; conditions: human enzyme, SPA
T2 sequence (P80365 1-405): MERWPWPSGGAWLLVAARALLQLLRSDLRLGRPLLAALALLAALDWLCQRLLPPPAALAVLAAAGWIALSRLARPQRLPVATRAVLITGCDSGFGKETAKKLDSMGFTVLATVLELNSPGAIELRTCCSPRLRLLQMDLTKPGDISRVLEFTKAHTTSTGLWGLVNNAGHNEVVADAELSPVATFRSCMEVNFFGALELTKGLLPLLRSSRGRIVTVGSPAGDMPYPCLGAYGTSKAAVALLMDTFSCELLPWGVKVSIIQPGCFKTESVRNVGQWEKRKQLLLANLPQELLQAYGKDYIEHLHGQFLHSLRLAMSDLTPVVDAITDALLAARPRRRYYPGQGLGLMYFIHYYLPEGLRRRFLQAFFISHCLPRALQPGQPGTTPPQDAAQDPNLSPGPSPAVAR
Experimental: as §4

For `O=C(O)C12CC3CC(C1)C(NC(=O)C1(c4ccccc4)CC1)C(C3)C2` (stereo not drawn) [B, E-4-[(1-Phenyl-cyclopropanecarbonyl)-amino]-adamantane-1-carboxylic acid], the “Mouse Liver Microsomal Turnover (%)” value [1] was 0%, the IC50 [2] was 0.102 µM and the “Human Liver Microsomal Turnover (%)” value [3] was 2%.
In the case of `CC1(C(=O)N[C@@H]2[C@@H]3C[C@@H]4C[C@H]2C[C@@](C(N)=O)(C4)C3)CCN(Cc2ccccc2)C1=O` (stereo partly drawn) [BB], the “memory retention (transfer latency), FIG. 3” value [4] is reported as “significant improvement in memory retention”.
For `CC(C)(C(=O)N[C@@H]1[C@@H]2C[C@@H]3C[C@H]1C[C@@](C(=O)O)(C3)C2)c1ccccc1` [C, E-4-(2-Methyl-2-phenyl-propionylamino)-adamantane-1-carboxylic acid], the “Mouse Liver Microsomal Turnover (%)” value [1] was 0%, the IC50 [2] was 0.082 µM and the “Human Liver Microsomal Turnover (%)” value [3] was 0%. For the same compound, the IC50 [5] was > 10 µM.
In the case of `O=C(O)C12CC3CC(C1)C(NC(=O)C1(c4ccc(Cl)cc4)CCC1)C(C3)C2` (stereo not drawn) [Compound A, E-4-{[1-(4-Chloro-phenyl)-cyclobutanecarbonyl]-amino}-adamantane-1-carboxylic acid], the “Mouse Liver Microsomal Turnover (%)” value [1] is reported as 5%, the IC50 [2] is reported as 0.043 µM and the “Human Liver Microsomal Turnover (%)” value [3] is reported as 5%. The IC50 [5] was > 10 µM.
In the case of `Cc1ccccc1CN1CCCC(C)(C(=O)NC2C3CC4CC2CC(C(N)=O)(C4)C3)C1=O` (stereo not drawn) [Compound AA], the “memory retention (transfer latency), FIG. 3” value [4] is reported as “significant improvement in memory retention”.
With `NC(=O)C12CC3CC(C1)C(NC(=O)C1(c4ccc(Cl)cc4)CCC1)C(C3)C2` (stereo not drawn) [D, E-4-{[1-(4-Chloro-phenyl)-cyclobutanecarbonyl]-amino}-adamantane-1-carboxylic acid amide] the “Human Liver Microsomal Turnover (%)” value [3] was 10%.
For `CC(C)(C(=O)NC1C2CC3CC(C2)CC1C3)c1ccccc1` (stereo not drawn) [E, N-2-adamantyl-2-methyl-2-phenylpropanamide], the “Human Liver Microsomal Turnover (%)” value [3] was 83%.
For `O=C(NC1C2CC3CC(C2)CC1C3)C1(c2ccccc2)CC1` (stereo not drawn) [F, N-2-adamantyl-1-phenylcyclopropanecarboxamide], the “Human Liver Microsomal Turnover (%)” value [3] was 62%.
`CC(C)(C(=O)N[C@@H]1[C@@H]2C[C@@H]3C[C@H]1C[C@@](C(=O)NCc1ccc(C(=O)O)cc1)(C3)C2)c1cccs1` [JJ, 4-{[({(E)-4-[(2-methyl-2-thien-2-ylpropanoyl)amino]-1-adamantyl}carbonyl)amino]methyl}benzoic acid] showed an IC50 [2] of 0.095 µM and an IC50 [5] of 60 µM.
For `NC(=O)[C@]12C[C@@H]3C[C@H](C1)[C@@H](NC(=O)C1(c4ccc(F)cc4)CCCC1)[C@@H](C3)C2` [N, E-4-({[1-(4-fluorophenyl)cyclopentyl]carbonyl}amino)adamantane-1-carboxamide], the IC50 [2] was 0.031 µM and the IC50 [5] was > 30 µM.
Compound `NC(=O)[C@]12C[C@@H]3C[C@H](C1)[C@@H](NC(=O)C1(c4ccccc4F)CCCC1)[C@@H](C3)C2` [O, E-4-({[1-(2-fluorophenyl)cyclopentyl]carbonyl}amino)adamantane-1-carboxamide] has an IC50 [2] of 0.038 µM and an IC50 [5] of 16 µM.
With `CC1(C(=O)N[C@@H]2[C@@H]3C[C@@H]4C[C@H]2C[C@@](C(N)=O)(C4)C3)CCCCC1` [P, E-4-{[(1-methylcyclohexyl)carbonyl]amino}adamantane-1-carboxamide] the IC50 [2] was 0.038 µM and the IC50 [5] was > 30 µM.
Work on `NC(=O)[C@]12C[C@@H]3C[C@H](C1)[C@@H](NC(=O)C1(c4ccc(Cl)cc4Cl)CC1)[C@@H](C3)C2` [Q, E-4-({[1-(2,4-dichlorophenyl)cyclopropyl]carbonyl}amino)adamantane-1-carboxamide] yielded an IC50 [2] of 0.036 µM and an IC50 [5] of 16 µM.
`COc1ccc(C2(C(=O)N[C@@H]3[C@@H]4C[C@@H]5C[C@H]3C[C@@](C(N)=O)(C5)C4)CC2)cc1` [R, E-4-({[1-(4-methoxyphenyl)cyclopropyl]carbonyl}amino)adamantane-1-carboxamide] showed an IC50 [2] of 0.027 µM and an IC50 [5] of 21 µM.
For `Cc1ccc(C2(C(=O)N[C@@H]3[C@@H]4C[C@@H]5C[C@H]3C[C@@](C(N)=O)(C5)C4)CC2)cc1` [S, E-4-({[1-(4-methylphenyl)cyclopropyl]carbonyl}amino)adamantane-1-carboxamide], the IC50 [2] was 0.037 µM and the IC50 [5] was 15 µM.
With `CC(C)(C(=O)N[C@@H]1[C@@H]2C[C@@H]3C[C@H]1C[C@@](C(N)=O)(C3)C2)c1cccs1` [U, E-4-[(2-methyl-2-thien-2-ylpropanoyl)amino]adamantane-1-carboxamide] the IC50 [2] was 0.016 µM and the IC50 [5] was 12 µM.
In the case of `CC(C)(C(=O)N[C@@H]1[C@@H]2C[C@@H]3C[C@H]1C[C@@](C(N)=O)(C3)C2)c1ccsc1` [V, E-4-[(2-methyl-2-thien-3-ylpropanoyl)amino]adamantane-1-carboxamide], the IC50 [2] is reported as 0.019 µM and the IC50 [5] is reported as 15 µM.
With `CC(C)(C(=O)N[C@@H]1[C@@H]2C[C@@H]3C[C@H]1C[C@@](C(N)=O)(C3)C2)c1ccc(C(F)(F)F)cn1` [W, E-4-({2-methyl-2-[5-(trifluoromethyl)pyridin-2-yl]propanoyl}amino)adamantane-1-carboxamide] the IC50 [2] was 0.023 µM and the IC50 [5] was > 30 µM.
For `CC(C)(C(=O)N[C@@H]1[C@@H]2C[C@@H]3C[C@H]1C[C@@](C(N)=O)(C3)C2)c1ccc(-c2ccc(C(F)(F)F)cn2)cc1` [X, E-4-[(2-methyl-2-{4-[5-(trifluoromethyl)pyridin-2 yl]phenyl}propanoyl)amino]adamantane-1-carboxamide], the IC50 [2] was 0.104 µM and the IC50 [5] was > 30 µM.
With `COc1ccc(C2(C(=O)N[C@@H]3[C@@H]4C[C@@H]5C[C@H]3C[C@@](C(N)=O)(C5)C4)CCCC2)cc1` [Y, E-4-({[1-(4-methoxyphenyl)cyclopentyl]carbonyl}amino)adamantane-1-carboxamide] the IC50 [2] was 0.018 µM and the IC50 [5] was 13 µM.
In the case of `CC(C)(C(=O)N[C@@H]1[C@@H]2C[C@@H]3C[C@H]1C[C@@](C(N)=O)(C3)C2)c1ccc(Br)cc1` [Z, E-4-{[2-(4-bromophenyl)-2-methylpropanoyl]amino}adamantane-1-carboxamide], the IC50 [2] is reported as 0.021 µM and the IC50 [5] is reported as 23 µM.

Reference: patent US8993632B2, “Inhibitors of the 11-beta-hydroxysteroid dehydrogenase type 1 enzyme” (AbbVie Inc., priority 2005, dated 2015)
